Test results: ChEMBL document CHEMBL3244212, “Relationship of molecular structure to in vivo scintigraphic distribution of carbon-11-labeled compounds. 4. Carbon-11-labeled mandelonitriles, Mandelic acids, and their esters” (J Med Chem, 1978); call rule not given here
Each block holds one molecule with its values, some of them ahead of it.

What was measured:
Assay type in all cases: ADME, organism-based, Canis lupus familiaris
Canis familiaris [1] = assay: Biodistribution in iv dosed dog left lateral whole body measured after 4 mins by scintigraphic analysis; conditions: in vivo
[2] = Biodistribution in iv dosed dog left lateral thorax measured after 27 mins by scintigraphic analysis; conditions: in vivo, 0.45 h
[3] = Biodistribution in iv dosed dog ventral abdomen measured after 30 mins by scintigraphic analysis; conditions: in vivo, 0.5 h
[4] = Biodistribution in iv dosed dog left lateral head/neck measured after 35 mins by scintigraphic analysis; conditions: in vivo
[5] = Biodistribution in iv dosed dog blood measured after 3 mins by scintigraphic analysis; conditions: in vivo, 0.05 h
[6] = Biodistribution in iv dosed dog left lateral heart measured after 18 to 80 mins by scintigraphic analysis; conditions: in vivo
Liver = assay: Biodistribution in iv dosed dog left lateral liver measured after 18 to 80 mins by scintigraphic analysis; conditions: in vivo
[7] = Biodistribution in iv dosed dog urinary bladder measured after 21 to 51 mins by scintigraphic analysis; conditions: in vivo
Nucleic Acid [8] = assay: Ratio of drug level in temporal muscle to brain in iv dosed dog measured after 34 mins; conditions: in vivo
Nucleic Acid [9] = assay: Ratio of drug level in temporal muscle to lung in iv dosed dog measured after 34 mins; conditions: in vivo
Nucleic Acid [10] = assay: Ratio of drug level in temporal muscle to heart in iv dosed dog measured after 34 mins; conditions: in vivo
Nucleic Acid [11] = assay: Ratio of drug level in temporal muscle to liver in iv dosed dog measured after 34 mins; conditions: in vivo
[12] = Ratio of drug level in temporal muscle to bile in iv dosed dog measured after 34 mins; conditions: in vivo
Nucleic Acid [13] = assay: Ratio of drug level in temporal muscle to spleen in iv dosed dog measured after 34 mins; conditions: in vivo
Nucleic Acid [14] = assay: Ratio of drug level in temporal muscle to stomach in iv dosed dog measured after 34 mins; conditions: in vivo
Nucleic Acid [15] = assay: Ratio of drug level in temporal muscle to pancreas in iv dosed dog measured after 34 mins; conditions: in vivo
Nucleic Acid [16] = assay: Ratio of drug level in temporal muscle to kidney in iv dosed dog measured after 34 mins; conditions: in vivo
[17] = Ratio of drug level in temporal muscle to blood in iv dosed dog measured after 34 mins
[18] = Ratio of drug level in temporal muscle to urine in iv dosed dog measured after 34 mins; conditions: in vivo
Nucleic Acid [19] = assay: Ratio of drug level in temporal muscle to cerebrospinal fluid in iv dosed dog measured after 34 mins; conditions: in vivo
Nucleic Acid [20] = assay: Ratio of drug level in temporal muscle to brain in iv dosed dog measured after 40 mins; conditions: in vivo
Nucleic Acid [21] = assay: Ratio of drug level in temporal muscle to lung in iv dosed dog measured after 40 mins; conditions: in vivo
Nucleic Acid [22] = assay: Ratio of drug level in temporal muscle to heart in iv dosed dog measured after 40 mins; conditions: in vivo
Nucleic Acid [23] = assay: Ratio of drug level in temporal muscle to liver in iv dosed dog measured after 40 mins; conditions: in vivo
[24] = Ratio of drug level in temporal muscle to bile in iv dosed dog measured after 40 mins; conditions: in vivo
Nucleic Acid [25] = assay: Ratio of drug level in temporal muscle to spleen in iv dosed dog measured after 40 mins; conditions: in vivo
Nucleic Acid [26] = assay: Ratio of drug level in temporal muscle to pancreas in iv dosed dog measured after 40 mins; conditions: in vivo
Nucleic Acid [27] = assay: Ratio of drug level in temporal muscle to kidney in iv dosed dog measured after 40 mins; conditions: in vivo
Nucleic Acid [28] = assay: Ratio of drug level in temporal muscle to mesenteric nodes in iv dosed dog measured after 40 mins; conditions: in vivo
Nucleic Acid [29] = assay: Ratio of drug level in temporal muscle to mesenteric fat in iv dosed dog measured after 40 mins; conditions: in vivo
[30] = Ratio of drug level in temporal muscle to urine in iv dosed dog measured after 40 mins; conditions: in vivo
Nucleic Acid [31] = assay: Ratio of drug level in temporal muscle to adrenal in iv dosed dog measured after 40 mins; conditions: in vivo
Nucleic Acid [32] = assay: Ratio of drug level in temporal muscle to stomach in iv dosed dog measured after 40 mins; conditions: in vivo
Canis familiaris [33] = assay: Biodistribution in iv dosed dog lung after 3 mins by scintigraphic analysis; conditions: in vivo, 0.05 h

Drug uptake (Canis familiaris [1]): Active | Drug uptake [7]: Active
Compound: Cc1cccc(C(O)[11C](=O)O)c1 (configuration not stated)

Drug uptake (Canis familiaris [1]): Active | Drug uptake [7]: Active
Compound: O=[11C](O)C(O)c1ccccc1 (configuration not stated)

Drug uptake (Canis familiaris [33]): Active
Compound: CCO[11C](=O)C(O)c1ccccc1 (configuration not stated)

Drug uptake (Canis familiaris [33]): Active
Compound: O=[11C](OCc1ccccc1)C(O)c1ccccc1 (configuration not stated)

Further lines, the molecule ahead of its results:

Compound: N#[11C]C(O)c1ccc(O)c(O)c1 (configuration not stated)
Drug uptake (Canis familiaris [1]): Active | Drug uptake [2]: Active | Drug uptake [3]: Active | Drug uptake [4]: Active

Compound: COc1ccc(C(O)[11C]#N)cc1 (configuration not stated)
Drug uptake [5]: Active | Drug uptake [6]: Active | Drug uptake (Liver): Active

Compound: O=[11C](O)C(O)c1ccc(Cl)cc1 (configuration not stated)
Drug uptake (Canis familiaris [1]): Active | Drug uptake [7]: Active

Compound: O=[11C](O)C(O)c1ccccc1Cl (configuration not stated)
Drug uptake (Canis familiaris [1]): Active | Drug uptake [7]: Active | Ratio (Nucleic Acid [8]): 0.23 | Ratio (Nucleic Acid [9]): 1.08 | Ratio (Nucleic Acid [10]): 1.15 | Ratio (Nucleic Acid [11]): 1.38 | Ratio [12]: 1.23 | Ratio (Nucleic Acid [13]): 1.08 | Ratio (Nucleic Acid [14]): 1.35 | Ratio (Nucleic Acid [15]): 4.54 | Ratio (Nucleic Acid [16]): 4.46 | Kp at 34 min [17]: 13.8 | Ratio [18]: 36.77 | Ratio (Nucleic Acid [19]): 2 | Ratio (Nucleic Acid [20]): 0.16 | Ratio (Nucleic Acid [21]): 1.6 | Ratio (Nucleic Acid [22]): 1.06 | Ratio (Nucleic Acid [23]): 1.79 | Ratio [24]: 0.85 | Ratio (Nucleic Acid [25]): 1.46 | Ratio (Nucleic Acid [26]): 1.18 | Ratio (Nucleic Acid [27]): 6.26 | Ratio (Nucleic Acid [28]): 2.28 | Ratio (Nucleic Acid [29]): 0.47 | Ratio [30]: 295 | Ratio (Nucleic Acid [31]): 3.73 | Ratio (Nucleic Acid [32]): 1.17
